Activity data for 54 compounds are collected here from ChEMBL document CHEMBL1150338, “Prediction and identification of drug interactions with the human ATP-binding cassette transporter multidrug-resistance associated protein 2 (MRP2; ABCC2)” (J Med Chem, 2008).

The data set has as its target MRP2 (ABCC2) (Homo sapiens, UniProt Q92887). In words: in vitro.
Where [1] appears, read: probe estradiol-17-beta-glucuronide.
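Further: Inside-out membrane vesicles from Sf9 insect cells expressing human MRP2, measuring uptake of the estradiol glucuronide substrate, expressed as percent of untreated control.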

Chain of MRP2 (ABCC2) (Q92887 whole entry): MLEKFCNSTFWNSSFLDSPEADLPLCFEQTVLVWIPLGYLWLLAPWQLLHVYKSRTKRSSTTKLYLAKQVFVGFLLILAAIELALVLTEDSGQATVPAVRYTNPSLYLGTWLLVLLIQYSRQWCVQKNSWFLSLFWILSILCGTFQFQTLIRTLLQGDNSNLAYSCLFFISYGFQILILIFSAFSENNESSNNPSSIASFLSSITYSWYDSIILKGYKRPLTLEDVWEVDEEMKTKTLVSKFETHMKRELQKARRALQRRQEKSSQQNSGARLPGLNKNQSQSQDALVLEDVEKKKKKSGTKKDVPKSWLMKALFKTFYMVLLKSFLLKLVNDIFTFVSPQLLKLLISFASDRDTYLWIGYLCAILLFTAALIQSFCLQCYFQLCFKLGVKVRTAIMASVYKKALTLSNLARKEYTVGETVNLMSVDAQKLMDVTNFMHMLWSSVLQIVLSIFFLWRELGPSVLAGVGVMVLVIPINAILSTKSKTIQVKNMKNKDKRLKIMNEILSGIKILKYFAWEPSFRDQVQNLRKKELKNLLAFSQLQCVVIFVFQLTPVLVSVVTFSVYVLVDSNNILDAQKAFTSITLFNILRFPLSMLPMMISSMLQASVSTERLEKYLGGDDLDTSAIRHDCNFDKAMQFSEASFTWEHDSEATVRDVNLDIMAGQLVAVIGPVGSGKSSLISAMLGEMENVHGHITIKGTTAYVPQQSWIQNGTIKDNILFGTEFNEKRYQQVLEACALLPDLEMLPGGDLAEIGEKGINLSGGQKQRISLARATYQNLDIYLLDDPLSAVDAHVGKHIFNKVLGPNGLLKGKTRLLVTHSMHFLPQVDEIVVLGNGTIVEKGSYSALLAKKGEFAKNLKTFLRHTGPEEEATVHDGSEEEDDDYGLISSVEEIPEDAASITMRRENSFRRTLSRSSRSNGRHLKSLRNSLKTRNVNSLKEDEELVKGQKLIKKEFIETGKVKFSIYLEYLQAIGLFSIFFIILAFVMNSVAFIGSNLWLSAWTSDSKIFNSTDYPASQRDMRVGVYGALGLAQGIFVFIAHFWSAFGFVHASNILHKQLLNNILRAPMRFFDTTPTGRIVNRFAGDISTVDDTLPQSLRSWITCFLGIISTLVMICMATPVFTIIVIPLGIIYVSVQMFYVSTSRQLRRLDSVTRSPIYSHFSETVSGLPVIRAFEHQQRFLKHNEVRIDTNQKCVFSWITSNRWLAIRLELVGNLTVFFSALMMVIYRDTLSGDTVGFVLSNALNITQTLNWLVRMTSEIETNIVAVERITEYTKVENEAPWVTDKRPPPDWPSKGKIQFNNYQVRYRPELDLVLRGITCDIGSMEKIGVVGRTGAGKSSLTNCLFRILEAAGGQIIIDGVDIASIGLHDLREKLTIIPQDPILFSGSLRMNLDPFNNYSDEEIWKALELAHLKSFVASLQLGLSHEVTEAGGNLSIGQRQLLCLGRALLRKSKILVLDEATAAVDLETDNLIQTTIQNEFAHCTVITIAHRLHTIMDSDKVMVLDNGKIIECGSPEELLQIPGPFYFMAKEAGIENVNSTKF
Description: Effect on human MRP2-mediated estradiol-17-beta-glucuronide transport in Sf9 cells inverted membrane vesicles relative to control

`COc1cc2nc(N3CCN(C(=O)C4CCCO4)CC3)nc(N)c2cc1OC` (centres undefined) [TERAZOSIN]: for the setting “sf9”, the activity stood at 94%.
With `COc1ccc(-c2coc3cc(O)cc(O)c3c2=O)cc1` [BIOCHANIN], the activity under setting [1] worked out at 84%.
As for `O=c1c(-c2ccc(O)cc2)coc2cc(O)cc(O)c12` [GENISTEIN], the activity under setting [1] was determined as 101%.
The same measure, in the same setting: the value for `O[C@](CCN1CCCC1)(c1ccccc1)C1CCCCC1` [PROCYCLIDINE] was 62%.
As to `CC(=O)N1CCN(c2ccc(OC[C@H]3CO[C@](Cn4ccnc4)(c4ccc(Cl)cc4Cl)O3)cc2)CC1` [KETOCONAZOLE], the activity under setting [1] was found to be 76%.
`O=C1CN(/N=C/c2ccc([N+](=O)[O-])o2)C(=O)N1` [NITROFURANTOIN]: under “sf9”, the activity came to 94%.
On to `NNC(=O)c1ccncc1` [ISONIAZID], for which the activity under setting [1] was determined as 96%.
The same measure, in the same setting: the value for `CNCC[C@@H](Oc1ccccc1C)c1ccccc1` [ATOMOXETINE] was 109%.
The same measure, in the same setting: the value for `COc1cc2c(cc1OC)CN(CCc1ccc(NC(=O)c3cccc4c(=O)c5cccc(OC)c5[nH]c34)cc1)CC2` was 39%.
As for `CNCCCC12CCC(c3ccccc31)c1ccccc12` [MAPROTILINE], the activity (sf9) turned out to be 56%.
Consider `COc1cc2nc(N3CCN(C(=O)c4ccco4)CC3)nc(N)c2cc1OC` [PRAZOSIN], for which, under setting [1], the activity stood at 78%.
Same read-out and setting: the value for `CN(C)CCC=C1c2ccccc2CCc2ccccc21` [AMITRIPTYLINE] was 51%; that for `CC/C(=C(\c1ccccc1)c1ccc(OCCN(C)C)cc1)c1ccccc1` [TAMOXIFEN] was 8%; that for `CC(C)Cc1ccc(C(C)C(=O)O)cc1` (centres undefined) [IBUPROFEN] was 130%.
Consider `CN(Cc1cnc2nc(N)nc(N)c2n1)c1ccc(C(=O)N[C@@H](CCC(=O)O)C(=O)O)cc1` [METHOTREXATE], for which, where the note is “sf9”, the activity was 130%.
Consider `CCOC(=O)C1=C(C)NC(C)=C(C(=O)OC)C1c1cccc(Cl)c1Cl` (centres undefined) [FELODIPINE], for which the activity under setting [1] was found to be 86%.
The same measure, in the same setting: the value for `C=C(C)[C@H]1Cc2c(ccc3c2O[C@@H]2COc4cc(OC)c(OC)cc4[C@@H]2C3=O)O1` [ROTENONE] was 92%; that for `O=C1c2c(O)ccc(O)c2C(=O)c2c(NCCNCCO)ccc(NCCNCCO)c21` [MITOXANTRONE] was 175%.
Turning to `CC1=C(CC(=O)O)c2cc(F)ccc2/C1=C\c1ccc([S+](C)[O-])cc1` (centres undefined), the activity under setting [1] is 151%.
On the same count and under the same terms, the same measure for `CC(C)[C@@]1(NC(=O)[C@@H]2C=C3c4cccc5[nH]cc(c45)C[C@H]3N(C)C2)O[C@@]2(O)[C@@H]3CCCN3C(=O)[C@H](Cc3ccccc3)N2C1=O` [ERGOCRISTINE]: 60%.
Consider `CC(C)(C)c1ccc(C(O)CCCN2CCC(C(O)(c3ccccc3)c3ccccc3)CC2)cc1` (centres undefined) [TERFENADINE], for which the activity (sf9) came out at 3%.
With `CC/C(=C(/CC)c1ccc(O)cc1)c1ccc(O)cc1` [DIETHYLSTILBESTROL], under setting [1], the activity stood at 11%.
On to `CN1CCC[C@H]1c1cccnc1` [NICOTINE], for which the activity (sf9) turned out to be 101%.
With `CC(NCCC(c1ccccc1)c1ccccc1)c1ccccc1` (centres undefined) [FENDILINE], the activity under setting [1] is 5%.
On the same count and under the same terms, the same measure for `Nc1ccc(O)c(C(=O)O)c1` [MESALAMINE]: 109%; for `C=C[C@H]1C[N@@]2CC[C@H]1C[C@H]2[C@H](O)c1ccnc2ccc(OC)cc12` [QUININE]: 75%; for `Cc1cnc(C(=O)NCCc2ccc(S(=O)(=O)NC(=O)NC3CCCCC3)cc2)cn1` [GLIPIZIDE]: 81%.
Same read-out and setting: the same measure for `COc1ccc(CCN2CCC(Nc3nc4ccccc4n3Cc3ccc(F)cc3)CC2)cc1` [ASTEMIZOLE]: 36%; for `O=C(O)Cc1ccccc1Nc1c(Cl)cccc1Cl` [DICLOFENAC]: 198%.
As for `CN(C)[C@@H]1C(O)=C(C(N)=O)C(=O)[C@@]2(O)C(O)=C3C(=O)c4c(O)cccc4[C@@](C)(O)[C@H]3C[C@@H]12` [TETRACYCLINE], under “sf9”, the activity was 110%.
For the compound `CCC1(c2ccccc2)C(=O)NC(=O)NC1=O` [PHENOBARBITAL], the activity under setting [1] is 98%.
Take `CN(C)C(=O)C(CCN1CCC(O)(c2ccc(Cl)cc2)CC1)(c1ccccc1)c1ccccc1` [LOPERAMIDE]: the activity under setting [1] came out at 46%.
Still for that read-out and setting: the value for `CC(=O)[C@@]1(O)CC[C@H]2[C@@H]3C[C@H](C)C4=CC(=O)CC[C@]4(C)[C@H]3CC[C@@]21C` was 111%; that for `C[C@H](CCC(=O)O)[C@H]1CC[C@H]2[C@@H]3[C@H](O)C[C@@H]4C[C@H](O)CC[C@]4(C)[C@H]3CC[C@]12C` [CHENODIOL] was 101%; that for `CC(=O)Nc1ccc(O[C@@H]2O[C@H](C(=O)O)[C@@H](O)[C@H](O)[C@H]2O)cc1` [ACETAMINOPHEN GLUCURONIDE] was 150%.
The same measure, in the same setting: the value for `Cc1cc(=O)n(-c2ccccc2)n1C` [ANTIPYRINE] was 84%.
The same measure, in the same setting: the value for `Cc1ccc(-c2cc(C(F)(F)F)nn2-c2ccc(S(N)(=O)=O)cc2)cc1` [CELECOXIB] was 46%.
`COc1ccc2c(c1)c(CC(=O)O)c(C)n2C(=O)c1ccc(Cl)cc1` [INDOMETHACIN]: the activity under setting [1] amounted to 308%.
The same measure, in the same setting: the same measure for `Cc1ccc(N(CC(=O)O)CC(=O)O)c(OCCOc2cc(-c3c4cc(Cl)c(=O)cc-4oc4cc(O)c(Cl)cc34)ccc2N(CC(=O)O)CC(=O)O)c1`: 9%; for `CC(C)(C)NC(=O)[C@@H]1CN(Cc2cccnc2)CCN1C[C@@H](O)CC(Cc1ccccc1)C(=O)N[C@H]1c2ccccc2C[C@H]1O` (single isomer, unassigned): 93%.
In the case of `COC(=O)C1=C(C)NC(C)=C(C(=O)OCCN(C)Cc2ccccc2)C1c1cccc([N+](=O)[O-])c1` (centres undefined) [NICARDIPINE], the activity (sf9) was found to be 59%.
Turning to `NS(=O)(=O)c1cc(C(=O)O)c(NCc2ccco2)cc1Cl` [FUROSEMIDE], the activity under setting [1] came to 118%.
`Oc1ccc(/C=C/c2cc(O)cc(O)c2)cc1` [RESVERATROL]: the activity under setting [1] is 75%.
Still for that read-out and setting: the value for `C[C@]12CC[C@H](OS(=O)(=O)O)CC1=CC[C@@H]1[C@@H]2CC[C@]2(C)C(=O)CC[C@@H]12` [PRASTERONE SULFURIC ACID] was 395%; that for `COc1ccc(/C=C/C(=O)Nc2ccccc2C(=O)O)cc1OC` was 98%; that for `Nc1nc2c(c(=O)[nH]1)N(C=O)C(CNc1ccc(C(=O)N[C@@H](CCC(=O)O)C(=O)O)cc1)CN2` (some centres undefined) [LEUCOVORIN] was 103%.
On to `COc1cc(Cc2cnc(N)nc2N)cc(OC)c1OC` [TRIMETHOPRIM], for which the activity (sf9) is 107%.
Consider `O=c1c(O)c(-c2ccc(O)cc2O)oc2cc(O)cc(O)c12` [MORIN], for which the activity under setting [1] is 50%.
`CCCCc1oc2ccccc2c1C(=O)c1cc(I)c(OCCN(CC)CC)c(I)c1` [AMIODARONE]: under “sf9”, the activity was determined as 66%.
The same measure, in the same setting: the same measure for `CN(C)CCCN1c2ccccc2Sc2ccc(Cl)cc21` [CHLORPROMAZINE]: 58%.
Turning to `O=c1cc(-c2ccc(O)cc2)oc2cc(O)cc(O)c12` [APIGENIN], the activity under setting [1] came out at 94%.
Same read-out and setting: the same measure for `CC#C[C@]1(O)CC[C@H]2[C@@H]3CCC4=CC(=O)CCC4=C3[C@@H](c3ccc(N(C)C)cc3)C[C@@]21C` [MIFEPRISTONE]: 134%.
Regarding `CCN(CC)CCCC(C)Nc1ccnc2cc(Cl)ccc12` (centres undefined) [CHLOROQUINE], the activity (sf9) is 102%.
In the case of `CC1=C(C(=O)O)N2C(=O)[C@@H](NC(=O)[C@H](N)c3ccc(O)cc3)[C@H]2SC1` [CEFADROXIL], the activity under setting [1] worked out at 68%.
